Measurements reported in patent US7960129B2, “Assays and methods for determining STIM2 activity” (The Queen's Medical Center, priority 2007, dated 2011).
Read-outs that look alike come from different tables or passages of the source.

Assays:
[1] = biological target: T1, STIM1+CRACM1-expressing HEK293 cells (Homo sapiens, UniProt Q13586+Q96D31); assay: Whole-cell patch-clamp of CRAC currents in STIM1+CRACM1 cells; format: cell-based; conditions: 50 μM 2-APB; no IP3, [Ca2+]i buffered to 150 nM
T1 construct: expressed in transfected cells; host or cells: HEK293
Description: Patch-clamp experiments were performed in the tight-seal whole-cell configuration at 21-25° C. High-resolution current recordings were acquired using the EPC-9 (HEKA). […] Currents were filtered at 2.9 kHz and digitized at 100 μs intervals. Capacitive currents were determined and corrected before each voltage ramp. Extracting the current amplitude at −80 mV from individual ramp current records assessed the low-resolution temporal development of currents. […] All chemicals were purchased from Sigma-Aldrich Co.

CRAC currents = conditions: cited from earlier work; for doses that inhibit CRAC currents: high doses
[2] = biological target: T2, STIM2+CRACM1-expressing HEK293 cells (Homo sapiens, UniProt Q9P246); assay: Whole-cell patch-clamp of CRAC currents in STIM2+CRACM1 cells; format: cell-based; conditions: for suppression of the secondary phase of CRAC current: added to pipette solution: ATP 3 mM, GTP 0.3 mM, calmodulin 100 μM, [Ca2+]i 150 nM
T2 construct: expressed in transfected cells; host or cells: HEK293
Description: Patch-clamp experiments were performed in the tight-seal whole-cell configuration at 21-25° C. High-resolution current recordings were acquired using the EPC-9 (HEKA). Voltage ramps of 50 ms duration spanning a range of −100 to +100 mV were delivered from a holding potential of 0 mV at a rate of 0.5 Hz over a period of 100-700 sec. All voltages were corrected for a liquid junction potential of 10 mV (3 mV with Cl^− as main internal anion). Currents were filtered at 2.9 kHz and digitized at 100 μs intervals. Capacitive currents were determined and corrected before each voltage ramp. Extracting the current amplitude at −80 mV from individual ramp current records assessed the low-resolution temporal development of currents. Where applicable, statistical errors of averaged data are given as means±S.E.M. with n determinations. Standard external solutions were as follows (in mM): 120 NaCl, 10 CsCl, 2.8 KCl, 2 MgCl2, 10 CaCl2, 10 TEA-Cl, 10 HEPES, 10 glucose, pH 7.2 with NaOH, 300 mOsm. In some experiments, 2 μM or 50 μM 2-aminoethyldiphenyl borate (2-APB) or 10 μM G418 were added to the standard external solution and applied through wide-tipped puffer pipettes. Standard internal solutions were as follows (in mM): 120 Cs-glutamate, 8 NaCl, 10 Cs-BAPTA, 3 MgCl2, 10 HEPES, 0.02 IP3, pH 7.2 with CsOH, 300 mOsm. As indicated in the figure legends, for some experiments [Ca^2+]i was buffered to 150 nM by 20 mM Cs•BAPTA and 8 mM CaCl2 or 20 mM Cs•EGTA and 8.9 mM CaCl2. For passive-depletion experiments, the internal solution was supplemented with Cs•BAPTA in the absence of IP3 and Ca^2+. In some experiments, Cs-glutamate and Cs•BAPTA were equimolarly replaced by KCl and K•BAPTA. In others, G418, Na•ATP and Na•GTP or calmodulin were added to intracellular solutions as specified in the figure legends. All chemicals were purchased from Sigma-Aldrich Co.

T2 sequence (Q9P246 15-746): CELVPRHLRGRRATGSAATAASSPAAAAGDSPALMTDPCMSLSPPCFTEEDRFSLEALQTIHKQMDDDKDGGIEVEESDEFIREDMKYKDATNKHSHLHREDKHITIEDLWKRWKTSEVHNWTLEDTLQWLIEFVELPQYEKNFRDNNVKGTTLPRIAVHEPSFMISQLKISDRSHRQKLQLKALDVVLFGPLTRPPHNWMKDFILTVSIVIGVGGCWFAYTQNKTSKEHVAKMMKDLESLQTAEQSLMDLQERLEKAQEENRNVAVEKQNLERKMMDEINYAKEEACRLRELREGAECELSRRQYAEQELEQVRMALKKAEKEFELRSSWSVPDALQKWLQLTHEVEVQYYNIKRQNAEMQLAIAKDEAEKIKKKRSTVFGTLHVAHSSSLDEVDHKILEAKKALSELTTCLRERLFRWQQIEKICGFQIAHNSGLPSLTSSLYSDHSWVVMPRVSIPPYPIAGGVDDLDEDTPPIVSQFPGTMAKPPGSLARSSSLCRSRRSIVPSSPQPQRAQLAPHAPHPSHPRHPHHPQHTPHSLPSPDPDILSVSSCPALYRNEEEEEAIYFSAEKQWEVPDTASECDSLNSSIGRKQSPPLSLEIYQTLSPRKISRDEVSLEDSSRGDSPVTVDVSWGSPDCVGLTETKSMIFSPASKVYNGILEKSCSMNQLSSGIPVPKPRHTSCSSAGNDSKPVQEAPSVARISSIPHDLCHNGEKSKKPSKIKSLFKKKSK
T1 sequence (Q13586 23-685): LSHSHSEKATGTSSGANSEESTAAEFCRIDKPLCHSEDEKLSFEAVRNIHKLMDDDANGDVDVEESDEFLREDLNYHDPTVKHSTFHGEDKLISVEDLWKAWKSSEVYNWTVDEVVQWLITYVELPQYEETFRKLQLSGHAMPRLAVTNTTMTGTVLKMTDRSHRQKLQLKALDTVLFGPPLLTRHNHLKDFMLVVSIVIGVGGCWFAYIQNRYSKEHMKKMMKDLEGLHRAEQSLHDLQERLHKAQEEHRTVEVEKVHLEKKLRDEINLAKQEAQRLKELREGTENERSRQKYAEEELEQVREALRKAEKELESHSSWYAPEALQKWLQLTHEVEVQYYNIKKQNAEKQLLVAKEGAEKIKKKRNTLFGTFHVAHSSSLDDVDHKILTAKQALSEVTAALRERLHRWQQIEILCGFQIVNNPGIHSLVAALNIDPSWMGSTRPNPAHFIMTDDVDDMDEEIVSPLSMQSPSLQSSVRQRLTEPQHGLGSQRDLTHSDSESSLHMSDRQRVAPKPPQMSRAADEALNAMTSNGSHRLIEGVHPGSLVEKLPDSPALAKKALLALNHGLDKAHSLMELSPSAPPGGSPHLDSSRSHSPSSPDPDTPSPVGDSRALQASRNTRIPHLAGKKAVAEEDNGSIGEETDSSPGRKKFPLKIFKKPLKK
T1 sequence (Q96D31 whole entry): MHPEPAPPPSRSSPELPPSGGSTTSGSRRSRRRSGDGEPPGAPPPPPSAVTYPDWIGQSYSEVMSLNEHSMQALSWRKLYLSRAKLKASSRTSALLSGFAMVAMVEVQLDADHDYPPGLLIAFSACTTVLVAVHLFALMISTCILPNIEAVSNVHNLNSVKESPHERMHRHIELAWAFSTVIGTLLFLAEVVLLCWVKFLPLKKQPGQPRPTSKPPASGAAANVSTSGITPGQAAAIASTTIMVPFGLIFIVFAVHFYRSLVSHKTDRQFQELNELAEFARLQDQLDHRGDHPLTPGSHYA

For `NCCOB(c1ccccc1)c1ccccc1` [2-APB, 2-aminoethoxydiphenyl borate], the “2-APB-induced current without store depletion” value [1] is listed as “not observed”, the “doses that inhibit CRAC currents” value (CRAC currents; unit as printed in b55) is listed as no less than 10 mM and the “doses that inhibit CRAC currents” value (CRAC currents) is listed as no less than 0.01 mM. For the same compound, the “doses with facilitatory effects on CRAC currents” value (CRAC currents; low doses) was no more than 5 µM, the “CRAC currents activated by 2-APB” value ([2]; 50 μM 2-APB, stores depleted by IP3 or kept full ([Ca2+]i 150 nM), cells grown without G418) was “large, transient CRAC currents” and the “CRACM1 currents induced by external application of 2-APB” value ([2]; 2 mM 2-APB as printed, cells grown in G418, no IP3-induced current) was “large CRACM1 currents”. For the same compound, the “activation time of 2-APB-induced current” value ([2]; high-resolution recording at fixed membrane potential) was “within a few seconds” and the “effect of 2-APB on G418-mediated suppression of CRAC currents” value ([2]; regardless of the filling state of stores) was “capable of overcoming the G418-mediated suppression”.

`CN[C@@H]1[C@@H](O)[C@@H](O[C@@H]2[C@@H](O)[C@H](O[C@H]3O[C@H]([C@@H](C)O)[C@@H](O)[C@H](O)[C@H]3N)[C@@H](N)C[C@H]2N)OC[C@]1(C)O` [G418] gave an IC50 [2] of 0.52 µM and an IC50 ([2]; half-maximal inhibitory concentration for IP3-induced CRACM1 currents, cells perfused with G418, both phases of the current) of 0.5 µM.

With `Nc1ncnc2c1ncn2[C@@H]1O[C@H](COP(=O)(O)OP(=O)(O)OP(=O)(O)O)[C@@H](O)[C@H]1O` [ATP] the “suppression of the secondary phase of CRAC current” value [2] was “failed to suppress”.

With `Nc1nc2c(ncn2[C@@H]2O[C@H](COP(=O)(O)OP(=O)(O)OP(=O)(O)O)[C@@H](O)[C@H]2O)c(=O)[nH]1` [GTP] the “suppression of the secondary phase of CRAC current” value [2] was “failed to suppress”.

In the case of calmodulin, the “suppression of the secondary phase of CRAC current” value [2] is reported as “secondary phase was observed”.
